Test results from US20040033213A1, “Methods of modulating dendritic cells using adjuvants” (Corixa Corporation, priority 2002, published 2004).

How the values were obtained:
[1] = test system: 6-7 day cultured human dendritic cells; experiment: ELISA of cytokines (IL-12 p40, IL-12 p70, TNF-α) in 22 h induction supernatants of cultured human dendritic cells; type: cell-based; conditions: for IL-12 p40 / IL-12 p70 / TNF-α: 22 Hrs; for IL-12 p40 / IL-12 p70 / TNF-α / IL-12 (p40) expression (in words): LPS 10 ng/ml, others 100 ng/ml; for IL-12 (p40) expression (in words): all three experiments; for IL-12 (p70) (in words): the one donor in which LPS and MPL-S gave a significant amount; for TNF-α secretion (in words): three donors
From the text: Recent articles have described how human dendritic cells can be derived in vitro from CD14 positive monocyte precursors in peripheral blood. A “buffy coat” preparation can now be commonly obtained from a unit of normal human peripheral blood from a blood bank on request. The leukocyte fraction was harvested from this buffy coat preparation using standard ficoll centrifugation techniques. Subsequently, the leukocyte fraction was labeled with anti-CD 14 antibody coupled to magnetic microbeads. This preparation was then passed over a magnet (Miltanyi Biotech) and CD14 positive monocytes were collected. These CD14 positive monocyte precursors were then cultured for 5-7 days in vitro (5×10^5 cells/ml) with GM-CSF (20 ng/ml) for the duration of the culture. […] After the 24 hour in vitro stimulation culture, cells were washed twice and stained with a panel of monoclonal antibodies specific for different cell surface activation and co-receptor molecules found on mature, activated DCs.
Supernatants from DCs stimulated with LPS, MPL® immunostimulant-S, RC-527, RC-529, and RC-544 were collected and tested by ELISA analysis for cytokines.

[2] = test system: cryogenically stored 10 day murine DCs + D011.10 effector T cells; experiment: Cryogenically preserved 10 day murine DCs in the D011.10 T cell assay (IFN-γ ELISA); type: cell-based
Description: In order to determine if 10 day GM-CSF precultured DCs could be recovered from cryogenic storage and still retain their functional potential, studies were carried out to determine the functional integrity of LPS- and RC-527-stimulated, cryogenically preserved, 10 day DCs in the D011.10 T cell assay system. Specifically, 10 day GM-CSF-precultured DCs were stored in liquid nitrogen for several weeks. The cells were subsequently thawed and maintained for 24 hours in tissue culture in the presence of GM-CSF. After 24 hours in this “resting” culture, DCs were pulsed with ova for four hours and potentiated with LPS for 24 hours prior to placing them against D011.10 effector T cells at 4:1 and 8:1 ratios.
D011.10 effector T cell cultures were maintained for 24 hours and 48 hours, and culture supernatants were collected at both time points. These supernatants were tested for IFN-γ using a commercial ELISA system. The IFNγ response induced either by antigen-pulsed, lipid A stimulated DCs after 24 hours incubation with D011.10 T cells (FIG. 13a) or by LPS and RC-527 stimulated, cryogenically stored, cultured DCs after 48 hours of incubation with D011.10 effector T cells (FIG. 13b) was measured.

[3] = test system: KJ1 positive D011.10 CD4 T cells; experiment: OVA pulsed DC transfer into D011.10 loaded Balb/c mice; type: in vivo; conditions: for Total KJ1 Positive Cells/Spleen: others 100 ng/ml
Description: In a second experiment 6-7 day bone marrow derived (Balb/c) DCs were pulsed with antigen and subsequently stimulated overnight with LPS, MPL® immunostimulant-S, and RC-527 (Table 6). 5×10^6 D011.10 CD4 (KJ1-positive) T cells were transferred into Balb/c mice, and 24 hours later ova-pulsed cultured, DCs from the control group (pulsed with ova only) and the indicated test DCs potentiated with LPS, MPL® immunostimulant-S or RC-527 were also injected intravenously. […] The transferred DCs stimulated with ova only, ova+LPS and ova+MPL® immunostimulant-S produced a similar effect in inducing the amplification of D011.10 T lymphocyte numbers above the value observed when untreated DCs (i.e., no ova and no lipid A) were used as the putative APC source and transfected into Balb/c mice preinjected with KJ1 CD4 cells.
5×10^6 KJ1 positive D011.10 spleen cells were injected into Balb/c mice (I.V.) on day zero minus 1; 24 hrs later 5×10^6 DC's from the indicated in vitro induction test groups were injected I.V. and the spleens from test animals were harvested 3 and 5 days later for total KJ1 enumeration.

[4] = test system: cultured human dendritic cells (DC); experiment: Flow cytometry of cell surface activation markers on human DCs restimulated 72 hours with AGPs (titration); type: cell-based; conditions: titration 0.1-2 μg/ml, FIG. 18
[5] = Exp. # 092398 (second line, Day7)
[6] = Exp. # 092398 as printed (first line of section)
[7] = Exp. # 092398 as printed (third line of section)

Row | Structure (SMILES) | IL-12 p40 ([1]; Exp. # 091698) | IL-12 p70 [1, 5] | IL-12 p40 ([1]; Exp. # 092398, Day 7) | TNF-α ([1]; Exp. # 092398, Day 7) | IL-12 p70 [1, 6] | IL-12 p70 [1, 7] | TNF-α ([1]; Exp. # 093098 (third line of section)) | IL-12 p40 ([1]; Exp. # 093098) | TNF-α ([1]; Exp. # 093098) | IL-12 (p40) expression (in words) [1] | IL-12 (p70) (in words) [1] | IL-12 (p70) expression (in words) ([1]; the other two experiments (different normal donors)) | TNF-α secretion (in words) [1] | IFN-γ response of cryogenically stored DCs after antigen pulsing and activation (in words) ([2]; compared with unfrozen 10 day DCs) | IFN-γ response, 48 hours versus 24 hours of incubation (in words) ([2]; cryogenically stored DCs, FIG. 13) | Total KJ1 Positive Cells/Spleen ([3]; Day 3 after I.V. transfer of 5×10^6 OVA pulsed DCs stimulated in vitro, LPS 10 ng/ml) | Total KJ1 Positive Cells/Spleen ([3]; Day 5 after I.V. transfer of 5×10^6 OVA pulsed DCs stimulated in vitro, LPS 10 ng/ml) | splenic KJ1+ CD4 T cell numbers (in words) ([3]; day 3 and day 5 after transfer of stimulated DCs) | KJ1+ CD4 response, % of all splenic CD4 cells ([3]; second, similar DC transfer experiment, at 5 days, LPS 10 ng/ml, MPL-S 100 ng/ml) | CD86 expression, mean channel fluorescence (in words) [4]
1 | CCCCCCCCCCCC(CC(=O)NC(COC1OC(CO)C(OP(=O)(O)O)C(OC(=O)CC(CCCCCCCCCCC)OC(=O)CCCCCCCCC)C1NC(=O)CC(CCCCCCCCCCC)OC(=O)CCCCCCCCC)C(=O)O)OC(=O)CCCCCCCCC (stereo not shown) [RC-527] | 202,200 pg/mL/5 × 10^5 Cells | 201.4 pg/ml/5 × 10^5 Cells | 163,000 pg/mL/5 × 10^5 Cells | 10,750 pg/mL/5 × 10^5 Cells | 194.0 pg/ml/5 × 10^5 Cells | 168.9 pg/ml/5 × 10^5 Cells | 7,020 pg/mL/5 × 10^5 Cells | 107,600 pg/mL/5 × 10^5 Cells | 4,000 pg/mL/5 × 10^5 Cells | in every case a potent stimulator of IL-12 (p40) | high levels of IL-12 (p70) | significant levels of IL-12 (p70) expression | very strong TNF-α effect in all three donors | fully capable of supporting an IFNγ response | significantly stronger IFN-γ response after 48 hours | 4.1 × 10^6 Cells/Spleen | 3.0 × 10^6 Cells/Spleen | higher levels of splenic KJ1^+ CD4 T cell numbers than any of the other test groups at both time points | 3.9% | highest stimulation of CD86 expression over most of the titration range
2 | CCCCCCCCCCCCCC(=O)O[C@H](CCCCCCCCCCC)CC(=O)NCCO[C@@H]1O[C@H](CO)[C@@H](OP(=O)(O)O)[C@H](OC(=O)C[C@@H](CCCCCCCCCCC)OC(=O)CCCCCCCCCCCCC)[C@H]1NC(=O)C[C@@H](CCCCCCCCCCC)OC(=O)CCCCCCCCCCCCC.CCN(CC)CC [RC-529, 2-[(R)-3-Tetradecanoyloxytetradecanoylamino]ethyl 2-Deoxy-4-O-phosphono-3-O-[(R)-3-tetradecanoyoxytetradecanoyl]-2-[(R)-3-tetradecanoyoxytetradecanoylamino]-β-D-glucopyranoside triethylammonium salt] | 38,700 pg/mL/5 × 10^5 Cells | 215.3 pg/ml/5 × 10^5 Cells | 127,500 pg/mL/5 × 10^5 Cells | 7,400 pg/mL/5 × 10^5 Cells | 4.2 pg/ml/5 × 10^5 Cells | 28.2 pg/ml/5 × 10^5 Cells |  | 60,700 pg/mL/5 × 10^5 Cells | 372 pg/mL/5 × 10^5 Cells | also stimulated IL-12 (p40) responses | high levels of IL-12 (p70) |  | moderately lower than the effect due to RC-527 |  |  |  |  |  |  | 
